Laboratory results from ChEMBL document CHEMBL1671819, “Interactions of monoamine oxidases with the antiepileptic drug zonisamide: specificity of inhibition and structure of the human monoamine oxidase B complex” (J Med Chem, 2011).

Assays:
[1] = biological target: T1, Amine oxidase [flavin-containing] A (Rattus norvegicus, UniProt P21396); test: Competitive inhibition of rat MAOA by spectrophotometry
T1 sequence (P21396 whole entry): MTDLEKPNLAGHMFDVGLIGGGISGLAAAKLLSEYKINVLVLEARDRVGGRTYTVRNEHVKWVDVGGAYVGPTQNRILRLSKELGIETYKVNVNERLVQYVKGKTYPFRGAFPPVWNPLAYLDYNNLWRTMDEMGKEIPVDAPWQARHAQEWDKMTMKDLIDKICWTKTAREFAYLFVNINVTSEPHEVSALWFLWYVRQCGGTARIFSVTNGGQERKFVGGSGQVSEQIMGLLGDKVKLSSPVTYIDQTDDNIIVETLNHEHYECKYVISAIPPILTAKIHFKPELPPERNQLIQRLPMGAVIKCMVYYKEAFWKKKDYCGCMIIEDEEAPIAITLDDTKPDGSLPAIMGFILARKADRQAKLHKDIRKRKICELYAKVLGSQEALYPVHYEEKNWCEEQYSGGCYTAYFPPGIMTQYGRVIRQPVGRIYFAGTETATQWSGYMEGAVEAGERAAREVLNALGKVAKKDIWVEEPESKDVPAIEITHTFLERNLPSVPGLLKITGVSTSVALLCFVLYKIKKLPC

[2] = test system: Serum; test: Drug level in parkinson's disease patient serum at 25 mg/day; format: ADME, cell-free; conditions: human, read-out: Drug uptake
[3] = biological target: T2, Amine oxidase [flavin-containing] B (Homo sapiens, UniProt P27338); test: Competitive inhibition of human MAO B by spectrophotometry
T2 sequence (P27338 whole entry): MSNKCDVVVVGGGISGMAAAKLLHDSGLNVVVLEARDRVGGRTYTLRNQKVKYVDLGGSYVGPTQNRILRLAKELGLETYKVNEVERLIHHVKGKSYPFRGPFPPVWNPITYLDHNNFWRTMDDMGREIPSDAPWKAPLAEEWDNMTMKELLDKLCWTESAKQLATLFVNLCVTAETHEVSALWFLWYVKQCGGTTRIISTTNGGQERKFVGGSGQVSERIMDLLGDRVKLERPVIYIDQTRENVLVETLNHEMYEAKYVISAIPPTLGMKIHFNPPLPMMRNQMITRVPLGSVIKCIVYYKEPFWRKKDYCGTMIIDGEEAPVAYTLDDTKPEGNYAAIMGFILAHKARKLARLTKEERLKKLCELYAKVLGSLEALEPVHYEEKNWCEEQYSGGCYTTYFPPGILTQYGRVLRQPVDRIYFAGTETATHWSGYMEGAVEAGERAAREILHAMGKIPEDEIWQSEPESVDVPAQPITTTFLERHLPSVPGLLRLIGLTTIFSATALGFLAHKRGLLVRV

[4] = biological target: T3, Amine oxidase [flavin-containing] B (Rattus norvegicus, UniProt P19643); test: Competitive inhibition of rat MAO B by spectrophotometry
T3 sequence (P19643 whole entry): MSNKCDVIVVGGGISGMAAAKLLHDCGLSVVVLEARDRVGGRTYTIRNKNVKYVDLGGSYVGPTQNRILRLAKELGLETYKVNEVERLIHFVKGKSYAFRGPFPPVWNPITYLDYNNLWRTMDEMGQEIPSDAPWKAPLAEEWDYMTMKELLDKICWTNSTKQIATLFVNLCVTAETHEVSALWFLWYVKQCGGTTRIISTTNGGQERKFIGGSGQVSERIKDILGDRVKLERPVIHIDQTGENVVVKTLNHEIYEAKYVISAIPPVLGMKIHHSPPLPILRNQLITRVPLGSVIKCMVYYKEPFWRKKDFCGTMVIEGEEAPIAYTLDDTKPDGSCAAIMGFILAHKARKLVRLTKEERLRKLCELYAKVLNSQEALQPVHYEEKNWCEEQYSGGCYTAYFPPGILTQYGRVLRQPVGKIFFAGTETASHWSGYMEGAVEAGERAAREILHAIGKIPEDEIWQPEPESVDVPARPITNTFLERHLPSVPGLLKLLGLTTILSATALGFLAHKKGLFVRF

[5] = biological target: T4, Amine oxidase [flavin-containing] (Danio rerio, UniProt Q6NSN2); test: Competitive inhibition of zebrafish MAO by spectrophotometry
T4 sequence (Q6NSN2 whole entry): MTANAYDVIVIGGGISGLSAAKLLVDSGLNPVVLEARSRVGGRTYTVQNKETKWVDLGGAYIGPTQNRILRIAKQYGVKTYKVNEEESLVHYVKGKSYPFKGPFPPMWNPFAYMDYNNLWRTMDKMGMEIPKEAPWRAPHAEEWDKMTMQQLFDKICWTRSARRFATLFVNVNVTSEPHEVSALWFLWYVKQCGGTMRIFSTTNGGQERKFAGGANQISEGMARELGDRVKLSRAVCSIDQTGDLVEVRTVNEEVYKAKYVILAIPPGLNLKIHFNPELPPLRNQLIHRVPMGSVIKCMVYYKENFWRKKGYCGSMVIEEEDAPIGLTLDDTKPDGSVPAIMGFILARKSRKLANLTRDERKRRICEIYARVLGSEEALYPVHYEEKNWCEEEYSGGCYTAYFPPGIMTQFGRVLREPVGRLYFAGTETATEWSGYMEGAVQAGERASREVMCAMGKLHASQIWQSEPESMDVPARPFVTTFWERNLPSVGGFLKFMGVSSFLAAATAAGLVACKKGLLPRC

[6] = biological target: T5, Amine oxidase [flavin-containing] A (Homo sapiens, UniProt P21397); test: Competitive inhibition of human MAOA by spectrophotometry
T5 sequence (P21397 whole entry): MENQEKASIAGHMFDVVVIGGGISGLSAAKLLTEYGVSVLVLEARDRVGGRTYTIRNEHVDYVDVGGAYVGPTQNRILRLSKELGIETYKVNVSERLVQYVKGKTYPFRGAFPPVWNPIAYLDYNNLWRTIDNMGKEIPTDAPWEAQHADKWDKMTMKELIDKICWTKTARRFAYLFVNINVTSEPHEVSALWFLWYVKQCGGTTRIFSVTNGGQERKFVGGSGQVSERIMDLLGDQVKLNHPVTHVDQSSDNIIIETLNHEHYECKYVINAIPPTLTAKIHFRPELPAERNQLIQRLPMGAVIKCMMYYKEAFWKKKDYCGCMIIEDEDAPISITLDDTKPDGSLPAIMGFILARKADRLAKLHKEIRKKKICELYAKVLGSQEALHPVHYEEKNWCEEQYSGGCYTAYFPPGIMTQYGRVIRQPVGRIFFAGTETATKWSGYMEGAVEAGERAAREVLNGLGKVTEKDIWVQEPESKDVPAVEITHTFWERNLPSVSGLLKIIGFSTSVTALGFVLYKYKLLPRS

inhibition (INH) [1]: Not Active
concentration [2]: 600 nM
Ki [3]: 3.1 µM
Ki [4]: 2.9 µM
Ki [5]: 30.8 µM
inhibition (INH) [6]: Not Active
SMILES: NS(=O)(=O)Cc1noc2ccccc12 [ZONISAMIDE]
